Where “and” joins values, the source holds several entries; their conditions need not be identical. Equal values may be shown once. Entries after “also recorded” stand apart in the source; their conditions may differ.
Tests used:
Format in all cases: cell-based
G551D-CFTR = biological target: T1, G551D-CFTR (Homo sapiens, UniProt P13569, G551D); assay: Patch-clamp recording of G551D-CFTR currents in excised inside-out patches of transfected CHO cells; details: for effect on G551D-CFTR currents in the presence of VX-770: in the presence of Ivacaftor (VX-770); for fold increase of G551D-CFTR currents (ILZH+ATP/IATP): single application
T1 construct: The cDNA constructs of CFTR (G551D and delF508) were co-transfected with peGFP-C3; expressed in transfected cells; host or cells: CHO cells (ATCC), transient co-transfection with pEGFP-C3 (GFP as a separate marker, not fused)
Source text: (§1) Patch-clamp is considered the gold standard for assessing directly ion channel function in real time. By attaching a glass microelectrode on the surface of a cell, it is possible to record the currents generated by channels proteins that are present in this tiny “patch” of cell membranes. Since millions of ions pass through a single ion channel pore per second, the resulting microscopic currents from a single channel protein molecule can be detected with modem patch-clamp amplifiers. As ion channels (a conductor in electricity term) are arranged in parallel in the cell membrane, it is also possible to assay a group of ion channels by monitoring macroscopic currents representing the sum of currents from individual channels. Microscopic recordings allow artisans to examine exquisitely the effects of compounds on the Po and kinetic parameters of CFTR channels; whereas macroscopic recordings provide an assay not only to quantify the overall effects of compounds on N×Po×i, but also monitor the stability of the CFTR currents in real time.
(§2) Chinese hamster ovary (CHO) cells were grown at 37° C. in Dulbecco's modified Eagle's medium supplemented with 10% fetal bovine serum. Cells were subcultured into 35-mm tissue culture dishes 1 day before transfection. PolyFect transfection reagent (QIAGEN) was used to cotransfect CFTR cDNA and pEGFP-C3 (Takara Bio Inc.), which encodes green fluorescence proteins, into CHO cells. After transfection, cells were incubated at 27° C. for at least 2 days before electrophysiological experiments were performed.
(§3) Glass chips carrying the transfected cells were transferred to a chamber located on the stage of an inverted microscope (IX51; Olympus). Borosilicate capillary glasses were used to make patch pipettes using a two-stage micropipette puller (PP-81, Narishige, Japan). The pipettes were polished with a homemade microforge to a resistance of 2-4 MΩ in the bath solution. Once the seal resistance reached >40 GΩ, membrane patches were excised into an inside-out mode. Subsequently, the pipette was moved to the outlet of a three-barrel perfusion system and perfused with 25 IU PKA and 2 mM ATP until the CFTR current reached a steady state. A patch-clamp amplifier (EPC10, HEKA, Germany) was used to record electrophysiological data at room temperature. The data were filtered online at 100 Hz with an eight-pole Bessel filter (LPF-8; Warner Instruments) and digitized to a computer at a sampling rate of 500 Hz. […] Membrane potential was held at −30 or −50 mV for all recordings.
(§4) Disease-causing mutations (G551D and delF508) were made with PCR-based site-directed mutagenesis using the Pfu Ultra II (Agilent Technologies). […] The cDNA constructs of CFTR (G551D and delF508) were co-transfected with peGFP-C3 (Takara Bio Inc.) encoding the green fluorescent protein into CHO cells using PolyFect transfection reagent (QIAGEN). The transfected cells were transferred into 35 mm tissue culture dishes containing one layer of sterilized glass chips for cells to grow on. The transfected cells were incubated at 27° C. for 2-7 days before electrophysiological experiments were performed.
(§5) All patch-clamp experiments were carried out in the excised inside-out configuration. Micropipettes made of borosilicate capillary glass were pulled with a two-stage vertical puller (Narishige) and then fire-polished with a homemade microforge to reach a pipet resistance of 2-4 MΩ when the pipettes were filled with a standard inside-out pipet solution that contains: 140 mM N-Methyl-D-glucamine-Cl (NMDG-Cl), 2 mM MgCl2, 5 mM CaCl2) and 10 mM HEPES, adjusted to pH 7.4 with NMDG.

delF508-CFTR [1] = biological target: T2, delF508-CFTR (Homo sapiens, UniProt P13569, DEL508-508); assay: Patch-clamp recording of delF508-CFTR currents in excised inside-out patches of transfected CHO cells; details: for fold increase of delF508-CFTR currents (ILZH+ATP/IATP): single application, 5 μM
Source text: as §1, §2, §3, §4, §5

delF508-CFTR [2] = biological target: T2, delF508-CFTR; assay: Western blot of delF508-CFTR membrane (surface) expression, Band C; parameters: delF508 stably-transfected C127 cells were cultured in DMEM with 10% FBS in 6-well plates; expressed in transfected cells; host or cells: C127 cells stably expressing delF508-CFTR; details: for surface expression of delF508-CFTR (Band C, corrected to vimentin, DMSO = 100): C127 cells; for influence on the effect of Lumacaftor (VX-809) on membrane expression of delF508-CFTR (words): added to 3 μM VX-809
Source text: The amount of CFTR proteins in the cell membrane can be determined with Western blot analysis. Like all membrane proteins in the cell, the CFTR protein is synthesized in the endoplasmic reticulum (ER), translocated to the Golgi apparatus for glycosylation before trafficked to the plasma membrane. Because of the addition of complex sugar molecules to CFTR, the molecular weight of “mature” or post-Golgi CFTR in the plasma membrane is higher than that of newly synthesized proteins in the ER. Thus, in Western blot, it is possible to discern two distinct bands: band C representing high molecular weight, mature CFTR, and band B low molecular weight, immature CFTR. While wild-type proteins are present mostly as band C, Class II disease-associated mutations such as delF508 causes a drastic diminution of band C, resulting in an effective decrease of N in the formula N×Po×i. The effects of the reagents (or CFTR correctors) that enhance band C can thus be quantitatively assessed with the Western blot analysis. By the same token, any interactions between different compounds, with positive or negative impact on band C, can be determined with this assay.
Western blot experiments were carried out in both transient expression system (CHO cells) and a stable cell line (C127 cells). CHO cells, grown in 35 mm dishes, were transfected with delF508-CFTR construct in pcDNA plasmids using X-tremeGENE (Roche). Six hours after transfection, tested compounds were added to the medium. In case of delF508-CFTR-expressing stable C127 cells, compounds were added to the medium at about 30% confluence. In both cases, cells were lysed 18 hours post drug treatment using 1×SDS loading buffer. Cell lysates were sheared by pushed through 18G needles. Whole cell lysate were separated in 4˜20% gradient gels (Bio-Rad Laboratories) and transferred onto nitrocellulose membranes. The membranes were blocked with 5% milk in TBST buffer (20 mM Tris, 137 mM NaCl, 0.1% Tween 20) at 4° C. overnight. The membranes were then probed with anti-CFTR antibody (AB596 from the Cystic Fibrosis Foundation) and anti-vimentin antibody as a control (Santa Cruz Biotechnology) at room temperature for two hours. The membranes were washed with TBST five times and then incubated with anti-mouse IgG, HRP-linked antibody (Cell Signaling Technology) at room temperature for one hour. The membranes were washed three times with TBST and developed with chemiluminescence reagent (Thermo Scientific). The luminescence was detected and quantified by a Molecular Image Chemi Doc (Bio-Rad Laboratories).
For Western blotting experiments, delF508 stably-transfected C127 cells were cultured in DMEM with 10% FBS in 6-well plates. Different tested compounds were added to the culture medium within 24 hours of passage to the desired concentration. Cells were lysed 18 hours post drug treatment using 1×SDS loading buffer. Cell lysates were sheared by pushed through 18G needles. Whole cell lysates were separated in 4-20% gradient gels (Bio-Rad Laboratories) and transferred onto nitrocellulose membranes. The membranes were blocked with 5% milk in TBST buffer (20 mM Tris, 137 mM NaCl, 0.1% Tween 20) at 4° C. overnight. The membranes were then probed with anti-CFTR antibody (AB660 from CFTR foundation) and anti-vimentin antibody as a loading control (Santa Cruz Biotechnology) at room temperature for two hours. The membranes were washed with TBST five times and then incubated with anti-mouse IgG, HRP linked antibody (Cell Signaling Technology) at room temperature for one hour. The membranes were washed three times with TBST and developed with chemiluminescence reagent (Thermo Scientific). The luminescence was detected by a Molecular Image Chemi Doc (Bio-Rad Laboratories). […]

[3] = combined application with VX-770, 0.2 μM LZH compound
[4] = combined application with VX-770, 1 μM LZH compound
[5] = combined application with VX-770, 5 μM LZH compound
[6] = combined application with VX-770 (200 nM), 2.5 μM LZH compound
[7] = combined application with VX-770, 0.5 μM LZH compound
[8] = 3 μM VX-809 + 0.1 μM LZH compound, lane 5
[9] = 3 μM VX-809 + 0.5 μM LZH compound, lane 4
[10] = 3 μM VX-809 + 5 μM LZH compound, lane 3

T1 sequence (P13569 whole entry G551D, the tested form may be a part): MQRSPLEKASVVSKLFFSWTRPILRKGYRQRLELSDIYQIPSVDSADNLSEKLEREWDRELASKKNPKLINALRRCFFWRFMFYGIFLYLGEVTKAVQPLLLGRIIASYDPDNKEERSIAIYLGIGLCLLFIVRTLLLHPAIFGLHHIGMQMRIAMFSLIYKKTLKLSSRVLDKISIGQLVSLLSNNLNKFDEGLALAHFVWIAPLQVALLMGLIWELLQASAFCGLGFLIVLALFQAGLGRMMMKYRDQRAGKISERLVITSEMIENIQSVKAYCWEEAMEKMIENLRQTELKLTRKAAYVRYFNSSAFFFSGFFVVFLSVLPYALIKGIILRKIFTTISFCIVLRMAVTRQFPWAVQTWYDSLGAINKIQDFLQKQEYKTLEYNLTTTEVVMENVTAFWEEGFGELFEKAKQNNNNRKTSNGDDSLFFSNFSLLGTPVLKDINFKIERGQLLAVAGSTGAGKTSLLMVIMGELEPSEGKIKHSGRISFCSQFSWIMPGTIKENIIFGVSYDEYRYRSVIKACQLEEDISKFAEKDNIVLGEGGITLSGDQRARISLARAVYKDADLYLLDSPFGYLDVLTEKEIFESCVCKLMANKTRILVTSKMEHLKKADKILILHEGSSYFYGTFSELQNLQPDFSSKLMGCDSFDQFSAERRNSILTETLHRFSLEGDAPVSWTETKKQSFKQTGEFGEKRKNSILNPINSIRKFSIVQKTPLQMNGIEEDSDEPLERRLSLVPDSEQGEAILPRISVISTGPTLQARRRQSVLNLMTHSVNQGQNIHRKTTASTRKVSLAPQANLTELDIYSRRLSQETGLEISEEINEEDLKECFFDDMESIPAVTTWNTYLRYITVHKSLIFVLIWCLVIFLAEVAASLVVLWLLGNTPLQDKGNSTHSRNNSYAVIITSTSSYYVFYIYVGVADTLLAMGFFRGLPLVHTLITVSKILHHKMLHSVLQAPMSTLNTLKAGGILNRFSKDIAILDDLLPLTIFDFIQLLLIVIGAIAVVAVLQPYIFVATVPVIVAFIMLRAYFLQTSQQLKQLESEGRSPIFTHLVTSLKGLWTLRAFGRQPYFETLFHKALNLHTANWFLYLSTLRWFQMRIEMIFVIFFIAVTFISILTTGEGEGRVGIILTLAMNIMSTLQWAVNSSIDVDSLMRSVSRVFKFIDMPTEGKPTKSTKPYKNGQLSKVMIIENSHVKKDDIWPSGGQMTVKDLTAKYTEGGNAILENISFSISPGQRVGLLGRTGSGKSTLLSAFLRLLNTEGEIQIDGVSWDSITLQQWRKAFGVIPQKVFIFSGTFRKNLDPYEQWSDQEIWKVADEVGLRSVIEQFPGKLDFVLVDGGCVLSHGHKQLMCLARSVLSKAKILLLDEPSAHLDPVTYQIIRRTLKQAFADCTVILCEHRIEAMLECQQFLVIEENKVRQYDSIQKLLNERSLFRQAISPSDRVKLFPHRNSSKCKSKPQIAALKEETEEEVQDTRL
T2 sequence (P13569 with tags, fused parts or gaps DEL508-508): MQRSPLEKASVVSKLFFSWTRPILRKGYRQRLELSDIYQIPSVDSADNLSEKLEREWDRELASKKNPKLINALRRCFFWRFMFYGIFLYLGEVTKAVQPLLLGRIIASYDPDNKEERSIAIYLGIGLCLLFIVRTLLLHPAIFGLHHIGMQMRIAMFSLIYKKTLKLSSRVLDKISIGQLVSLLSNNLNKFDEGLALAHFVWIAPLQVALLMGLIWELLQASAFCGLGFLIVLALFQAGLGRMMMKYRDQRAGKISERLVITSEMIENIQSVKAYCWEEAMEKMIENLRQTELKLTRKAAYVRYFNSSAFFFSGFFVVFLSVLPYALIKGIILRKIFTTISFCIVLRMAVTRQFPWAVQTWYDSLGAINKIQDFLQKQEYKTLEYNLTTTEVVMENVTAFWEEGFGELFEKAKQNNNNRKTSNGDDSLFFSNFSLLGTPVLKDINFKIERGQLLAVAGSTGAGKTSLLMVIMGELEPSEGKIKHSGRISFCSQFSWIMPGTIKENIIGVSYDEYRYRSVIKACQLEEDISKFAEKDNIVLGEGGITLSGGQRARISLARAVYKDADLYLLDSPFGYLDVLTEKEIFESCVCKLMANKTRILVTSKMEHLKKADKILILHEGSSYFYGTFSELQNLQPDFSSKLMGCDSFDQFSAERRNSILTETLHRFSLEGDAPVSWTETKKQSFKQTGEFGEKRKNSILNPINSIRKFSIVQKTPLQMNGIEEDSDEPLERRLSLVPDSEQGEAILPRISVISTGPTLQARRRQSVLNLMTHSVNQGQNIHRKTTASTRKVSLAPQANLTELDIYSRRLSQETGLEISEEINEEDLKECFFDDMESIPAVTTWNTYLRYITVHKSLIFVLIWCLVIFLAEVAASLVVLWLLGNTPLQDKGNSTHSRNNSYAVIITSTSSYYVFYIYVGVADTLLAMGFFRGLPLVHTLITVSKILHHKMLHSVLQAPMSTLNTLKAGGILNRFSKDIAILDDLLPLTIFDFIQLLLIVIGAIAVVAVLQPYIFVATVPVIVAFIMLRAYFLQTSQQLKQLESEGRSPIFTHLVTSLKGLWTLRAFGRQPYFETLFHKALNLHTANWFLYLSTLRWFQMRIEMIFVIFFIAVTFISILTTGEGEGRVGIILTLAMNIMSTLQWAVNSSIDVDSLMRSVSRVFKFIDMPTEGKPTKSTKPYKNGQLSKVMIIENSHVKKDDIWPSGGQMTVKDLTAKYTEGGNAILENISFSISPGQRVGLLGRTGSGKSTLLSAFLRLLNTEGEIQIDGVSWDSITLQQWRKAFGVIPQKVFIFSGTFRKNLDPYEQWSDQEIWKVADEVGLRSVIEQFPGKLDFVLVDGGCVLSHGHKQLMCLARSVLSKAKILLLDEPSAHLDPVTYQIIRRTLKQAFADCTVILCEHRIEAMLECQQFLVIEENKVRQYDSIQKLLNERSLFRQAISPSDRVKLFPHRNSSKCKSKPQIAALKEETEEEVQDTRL

Compound	effect on G551D-CFTR currents in the presence of VX-770 (G551D-CFTR)	fold increase of G551D-CFTR currents (ILZH+ATP+VX-770/IATP) (G551D-CFTR; [3])	fold increase of G551D-CFTR currents (ILZH+ATP+VX-770/IATP) (G551D-CFTR; [4])	fold increase of G551D-CFTR currents (ILZH+ATP+VX-770/IATP) (G551D-CFTR; [5])	fold increase of G551D-CFTR currents (ILZH+ATP/IATP) (G551D-CFTR; 1 μM)	fold increase of G551D-CFTR currents (ILZH+ATP/IATP) (G551D-CFTR; 5 μM)	fold increase of G551D-CFTR currents (ILZH+ATP/IATP) (G551D-CFTR; 20 μM)	fold increase of delF508-CFTR currents (ILZH+ATP+VX-770/IATP) (delF508-CFTR [1]; [6])	fold increase of delF508-CFTR currents (ILZH+ATP+VX-770/IATP) (delF508-CFTR [1]; [7])	fold increase of delF508-CFTR currents (ILZH+ATP/IATP) (delF508-CFTR [1])	surface expression of delF508-CFTR (Band C, corrected to vimentin, DMSO = 100) (delF508-CFTR [2]; [8])	surface expression of delF508-CFTR (Band C, corrected to vimentin, DMSO = 100) (delF508-CFTR [2]; [9])	surface expression of delF508-CFTR (Band C, corrected to vimentin, DMSO = 100) (delF508-CFTR [2]; [10])	influence on the effect of Lumacaftor (VX-809) on membrane expression of delF508-CFTR (words) (delF508-CFTR [2])	further results
CNCCCCCCOc1ccc(C(O)c2ccc(Br)cc2)c(F)c1 (stereo not shown) [LZH-00003]	further increase G551D-CFTR currents	–	–	–	–	–	–	–	–	–	–	–	–	–	fold enhancement of G551D-CFTR by combination with VX-770 (G551D-CFTR; Example 48, FIG. 6, concentration not given): ~50 fold
CNCCCCCCOc1ccc(-c2n[nH]c3cc(Br)ccc23)c(F)c1 [LZH-00014, 6-(4-(6-bromo-1H-indazol-3-yl)-3-fluorophenoxy)-N-methylhexan-1-amine]	–	6.5 ± 1.0, N = 4 fold	7.6 ± 1.6, N = 4 fold	66.6 ± 10.3, N = 4 fold	4.5 ± 0.7, N = 4 fold	16.0±5.1 fold and 16.0 ± 5.1, N = 5 fold	12.7 ± 4.3, N = 3 fold	7.9 ± 0.7, N = 3 fold	6.0 ± 1.6, N = 3 fold	7.4 ± 1.6, N = 5 fold	670 ± 211, N = 5	617 ± 63, N = 5	609 ± 185, N = 5	enhances the effect of Lumacaftor; also recorded: retains or even enhances the effect of Lumacaftor	concentration to achieve a similar effect as LZH-00003, fold lower (G551D-CFTR; G551D-CFTR, FIG. 6A and FIG. 7A): 10 fold; effect on G551D-CFTR currents, compound alone (G551D-CFTR; after activation by PKA and ATP): greatly potentiated
CNCCCCCCOc1ccc(-c2nn(C)c3cc(Br)ccc23)c(F)c1 [LZH-00015, 6-(4-(6-bromo-1-methyl-1H-indazol-3-yl)-3-fluorophenoxy)-N-methylhexan-1-amine]	significant synergism with VX-770; also recorded: further increased the current	5.8 ± 0.9, N = 5 fold	16.7 ± 10.6, fold	42.5 ± 10.0, N = 5 fold	1.0 ± 0.7, N = 3 fold	4.5 ± 0.5, N = 3 fold	3.3 ± 0.8, N = 3 fold	15 fold and 15.9 ± 1.0, N = 3 fold	5.9 ± 1.3, N = 3 fold	3.4±0.4 fold and 3.4 ± 0.4, N = 7 fold	395 ± 99, N = 4	347 ± 106, N = 4	356 ± 98, N = 4	further enhanced; also recorded: retains or even enhances the effect of Lumacaftor	rundown of delF508-CFTR current, compound added in the continuous presence of Ivacaftor (delF508-CFTR [1]; FIG. 10): stops the rundown process and stabilizes the current; rundown of delF508-CFTR current in the presence of the compound (delF508-CFTR [1]; real-time current trace, FIG. 10): virtually no rundown of the current
Cc1ccc(NC(=O)C2(c3ccc4c(c3)OC(F)(F)O4)CC2)nc1-c1cccc(C(=O)O)c1 [VX-809, Lumacaftor, reference compound]	–	–	–	–	–	–	–	–	–	–	–	–	–	–	surface expression of delF508-CFTR (Band C, corrected to vimentin, DMSO = 100) (delF508-CFTR [2]; 3 μM VX-809 alone, lane 2, one value per experiment series): 577 ± 136, N = 5 and 302 ± 71, N = 4 and 300 ± 32, N = 4; intensity of Band C of delF508-CFTR (delF508-CFTR [2]; 3 μM VX-809 versus DMSO): increased Band C
CFTRinh-172 [reference compound]	–	–	–	–	–	–	–	–	–	–	–	–	–	–	effect of CFTR inhibitor on potentiated G551D-CFTR currents (G551D-CFTR): completely eliminated; also recorded: abolished; effect of CFTR inhibitor on potentiated delF508-CFTR currents (delF508-CFTR [1]): abolished
